Legend:
[1] = tested on: MDA-MB-231 human breast cancer cells; assay: Seahorse oximetry, oxygen consumption rates (OCRs); type: cell-based; details: MitoQ 100 nM, 48 h
Method: (§1) Oxygen consumption rates (OCRs) were determined on a Seahorse XF96 bioenergetic analyzer using the XF cell Mito stress kit (Agilent Technologies®), according to manufacturer's recommendations. Briefly, MDA-MB-231 (10^4 cells/well), SkBr3 (10^4 cells/well), MDA-MB-436 (10^4 cells/well) or MCF10A (10^5 cells/well) were plated on XF96 culture plates 16 h before experiments in DMEM containing 10% FBS, and treated ±MitoQ for 48 h. On the day of analysis, culture media were replaced by DMEM containing 10 mM glucose, 2 mM glutamine, 1.85 g/L NaCl, 3 mg/L phenol red, pH 7.4. Cells were incubated for 1 h in a CO2-free incubator before analysis. Sequentially, basal OCR was acquired without treatment; ATP-linked OCR after the addition of 1 μM of ATP synthase inhibitor oligomycin; maximal OCR after mitochondrial potential disruption using 1 μM of ionophore carbonyl cyanide-4-(trifluoromethoxy) phenylhydrazone (FCCP); and non-mitochondrial OCR after the addition of 0.5 μM of Complex I inhibitor rotenone together with 0.5 μM of Complex III inhibitor antimycin A. All data were normalized by total protein content (Bio-Rad® Protein Assay; catalogue #5000006) measured right after oximetry. Mitochondrial OCRs (mtOCRs) were calculated by subtracting non-mitochondrial OCRs to the corresponding basal, maximal and ATP-linked OCRs.

[2] = tested on: MCF10A normal breast epithelial cells; assay: Seahorse oximetry, oxygen consumption rates (OCRs); type: cell-based, human; details: MitoQ 100 nM, 48 h
Method: as §1

[3] = tested on: MDA-MB-436 breast cancer cells; assay: Seahorse oximetry, oxygen consumption rates (OCRs); type: cell-based, human; details: MitoQ 100 nM, 48 h
Method: as §1

[4] = tested on: MDA-MB-231 human breast cancer cells; assay: Mitochondrial potential, JC-10; type: cell-based; details: 48 h
Method: (§2) The mitochondrial potential (ΔΨ) was measured using JC-10 Mitochondrial Membrane Potential Assay Kit (Abcam®, #ab112134), according to manufacturer's recommendations. Briefly, MDA-MB-231 (10^4 cells/well), SkBr3 (10^4 cells/well), MDA-MB-436 (10^4 cells/well) or MCF10A (10^5 cells/well) cells were seeded in 96-well plates and treated for 48 h±MitoQ. Cells were then washed twice and incubated with JC-10 (1× solution) for 45 min. Fluorescence intensities were measured at 490/525 nm and […] using a SpectraMax i3 spectrophotometer equipped with a MiniMax imaging cytometer (Molecular Devices®).

[5] = tested on: SkBr3 human breast cancer cells; assay: Mitochondrial potential, JC-10; type: cell-based; details: indicated doses of MitoQ, 48 h
Method: as §2

[6] = tested on: MCF10A normal breast epithelial cells; assay: Mitochondrial potential, JC-10; type: cell-based, human; details: MitoQ 100 nM, 48 h
Method: as §2

[7] = tested on: MDA-MB-436 breast cancer cells; assay: Mitochondrial potential, JC-10; type: cell-based, human; details: MitoQ 100 nM, 48 h
Method: as §2

[8] = tested on: MDA-MB-231 human breast cancer cells; assay: Mitochondrial superoxide, EPR with MitoTEMPO-H ±PEG-SOD2; type: cell-based; details: MitoQ 100 nM, 48 h
Method: (§3) Mitochondrial superoxide levels were determined using electron paramagnetic resonance (EPR) with MitoTEMPO-H as a specific mitochondrial superoxide probe ±PEG-SOD2 to specifically assign signals to mitochondrial superoxide. EPR measurements were performed using a Bruker EMX-Plus spectrometer, operating in X-band (9.85 GHz) and equipped with a PremiumX ultra low noise microwave bridge and a SHQ high sensitivity resonator. Typical settings were: microwave power: 20 mW; attenuation: 10 dB; modulation frequency: 100 kHz; modulation amplitude: 0.1 mT; time constant: 20.48 ms; conversion time: 22.58 ms; sweep width: 0.15 mT. Briefly, MDA-MB-231, SkBr3, MCF10A or MDA-MB-436 cells were treated ±MitoQ for 48 h, harvested and resuspended in PBS at 2×10^6 cells/mL. The experimental mixture was prepared with cell suspension, 1 mM DTPA and 150 μM MitoTEMPO-H. It was then aspirated into a gas-permeable polytetrafluoroethylene (PTFE) tubing that was placed in a quartz tube opened at both ends. The tube was directly inserted inside the EPR cavity that was heated at 310° K with air during all experiments. […] Net superoxide production was calculated by subtracting the double integration values of the […] with PEG-SOD2 to the control value at timepoint 15 min.

[9] = tested on: MCF10A normal breast epithelial cells; assay: as above; type: cell-based, human; details: MitoQ 100 nM, 48 h
Method: as §3

MDA-MB-231 cells [10] = assay: Intracellular ATP, CellTiter-Glo; type: cell-based, human; details: MitoQ 100 nM, 48 h
Method: Intracellular ATP levels were measured after 48 h of treatment ±MitoQ, using the CellTiter-Glo Luminescent Viability Assay (Promega®) on a Glomax 96 microplate luminometer (Promega®) following manufacturer's instructions. Results were normalized to cell number.

MDA-MB-231 cells [11] = assay: Cell migration, scratch test; type: cell-based, human; details: MitoQ 100 nM, 48 h
Method: (§4) A scratch test was performed on cells treated ±MitoQ for 48 h (Tamura et al.; Science, 1998; 280, 1614-1617). For each condition and each time point, pictures were taken in the same field, and the distance between the wound edges was analyzed using the Image J software (Java®). The percentage of scratch closure was calculated in respect to wounded area at 0 h.

MDA-MB-436 cells = assay: Cell migration, scratch test; type: cell-based, human; details: MitoQ 100 nM, 48 h
Method: as §4

SkBr3 cells [12] = assay: Cell migration, scratch test; type: cell-based, human; details: MitoQ 100 nM, 48 h
Method: as §4

MDA-MB-231 cells [13] = assay: Clonogenic assay on soft agar; type: cell-based, human; details: MitoQ 250 nM
Method: (§5) For soft agar colony formation assays, 0.4% Seaplaque soft agar (Lonza®) was diluted with DMEM containing 10% FBS and was covered by a second 0.3% soft agar layer in which 500 MDA-MB-231 or SKBR3 cells were embedded. Complete DMEM Culture media ±MitoQ was added with 2× the final concentration. After 20 days, colonies were counted using an Axiovert™ 40 CFL microscope equipped with a MRC camera.

SkBr3 cells [14] = assay: Clonogenic assay on soft agar; type: cell-based, human; details: MitoQ 250 nM
Method: as §5

`COC1=C(OC)C(=O)C(CCCCCCCCCC[P+](c2ccccc2)(c2ccccc2)c2ccccc2)=C(C)C1=O` [MitoQ] was tested, and the “basal, maximal and ATP-linked oxygen consumption rates (OCRs)” value [1] was “decreased”, the OCRs [2] was “reduced” and the “basal, maximal and ATP-linked OCRs” value [3] was “repressed”. The “mitochondrial potential (Δψ)” value ([4]; MitoQ 100 nM) was “decreased”, the “Δψ, dose dependence” value ([4]; indicated doses of MitoQ) was “dose-dependent decreases” and the “Δψ, dose dependence” value [5] was “dose-dependent decreases”. The “mitochondrial potential (Δψ)” value [6] was “not affected”, the “AT (FIG. 14D, mitochondrial potential)” value [7] was “repressed” and the “mitochondrial superoxide and mitochondrial H2O2 production” value [8] was “lower”. The mitochondrial superoxide production [9] was “not affected”, the ATP production (MDA-MB-231 cells [10]) was “overall decrease” and the migratory capability (MDA-MB-231 cells [11]) was “highly significantly reduced”. For the same compound, the cell migration (MDA-MB-436 cells) was “inhibited”, the migratory capability (SkBr3 cells [12]) was “highly significantly reduced” and the “clonogenicity in suspension on soft agar” value (MDA-MB-231 cells [13]) was “completely abrogated”. The “clonogenicity in suspension on soft agar” value (SkBr3 cells [14]) was “completely abrogated”.
